In the supplement of paper PMC11451515:

Key:
Settings in all cases: 48 h
NOMO1 [1] = assay: AUC of viability dose-response curve (% viability x log10 dose units); higher = less sensitive
Procedure, shortened: (§1)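 Leukemia cells adapted to each medium were seeded in 1536-well plates (500 or 1000 cells/well) and given library compounds in DMSO for 48 h at 37°C. The 11 threefold doses spanned 47 μM to 0.79 nM, and CellTiter-Glo One luminescence was normalised per plate to DMSO and cell-free wells before four-parameter log-logistic fitting on log10 dose. Area under the curve was integrated with the trapezoidal rule, scaling curves above full viability and removing curves that failed quality control.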

SEM cells [2] = assay: as above
Procedure, shortened: as §1

P12-Ichikawa [3] = assay: as above
Procedure, shortened: as §1

NOMO1 [4] = assay: cell viability relative to DMSO control; higher = less cytotoxic
Procedure, shortened: (§2)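 Library compounds in DMSO were pin-dosed into 1536-well plates (5 μl) holding NOMO1 or SEM (500 cells/well) or P12-Ichikawa (1000 cells/well) leukemia cells, across an 11-point threefold series of 47 μM to 0.79 nM. Each cell line had been adapted for at least four passages in each medium. CellTiter-Glo One luminescence was read after 48 h at 37°C. Viability is the per-plate percentage relative to DMSO wells, with cell-free wells as background.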

SEM cells [5] = assay: as above
Procedure, shortened: as §2

P12-Ichikawa [6] = assay: as above
Procedure, shortened: as §2

Cc1cc(Nc2ncc(Cl)c(Nc3ccccc3[S+](=O)([O-])C(C)C)n2)c(OC(C)C)cc1C1CCNCC1
AUC of viability dose-response curve
Settings	NOMO1 [1]	P12-Ichikawa [3]	SEM cells [2]
HPLM + 10% dialyzed FBS	396	449	380
RPMI 5 mM glucose + 10% FBS	395	425	393
RPMI 5 mM glucose + 10% dialyzed FBS	395	442	392

cell viability [%]
Settings	NOMO1 [4]	P12-Ichikawa [6]	SEM cells [5]
HPLM + 10% dialyzed FBS, 0.000781 µM	–	111	115
HPLM + 10% dialyzed FBS, 0.00234 µM	–	113	114
HPLM + 10% dialyzed FBS, 0.00702 µM	–	110	119
HPLM + 10% dialyzed FBS, 0.0211 µM	–	117	123
HPLM + 10% dialyzed FBS, 0.0632 µM	–	112	120
HPLM + 10% dialyzed FBS, 0.19 µM	–	115	109
HPLM + 10% dialyzed FBS, 0.569 µM	–	101	96
HPLM + 10% dialyzed FBS, 1.71 µM	–	105	88.1
HPLM + 10% dialyzed FBS, 5.12 µM	–	105	69
HPLM + 10% dialyzed FBS, 15.4 µM	–	90.6	48.3
HPLM + 10% dialyzed FBS, 46.1 µM	–	30.2	5.59
RPMI 5 mM glucose + 10% FBS, 0.000781 µM	126	111	112
RPMI 5 mM glucose + 10% FBS, 0.00234 µM	113	104	114
RPMI 5 mM glucose + 10% FBS, 0.00702 µM	112	113	103
RPMI 5 mM glucose + 10% FBS, 0.0211 µM	132	118	118
RPMI 5 mM glucose + 10% FBS, 0.0632 µM	126	125	119
RPMI 5 mM glucose + 10% FBS, 0.19 µM	127	112	101
RPMI 5 mM glucose + 10% FBS, 0.569 µM	115	108	94.2
RPMI 5 mM glucose + 10% FBS, 1.71 µM	97	96.1	101
RPMI 5 mM glucose + 10% FBS, 5.12 µM	76.8	94.1	65.3
RPMI 5 mM glucose + 10% FBS, 15.4 µM	54.1	69.9	50.5
RPMI 5 mM glucose + 10% FBS, 46.1 µM	6.06	5.5	5.71
RPMI 5 mM glucose + 10% dialyzed FBS, 0.000781 µM	127	117	125
RPMI 5 mM glucose + 10% dialyzed FBS, 0.00234 µM	120	117	121
RPMI 5 mM glucose + 10% dialyzed FBS, 0.00702 µM	112	118	104
RPMI 5 mM glucose + 10% dialyzed FBS, 0.0211 µM	117	116	146
RPMI 5 mM glucose + 10% dialyzed FBS, 0.0632 µM	122	115	142
RPMI 5 mM glucose + 10% dialyzed FBS, 0.19 µM	109	117	121
RPMI 5 mM glucose + 10% dialyzed FBS, 0.569 µM	105	111	110
RPMI 5 mM glucose + 10% dialyzed FBS, 1.71 µM	114	113	100
RPMI 5 mM glucose + 10% dialyzed FBS, 5.12 µM	67	107	80.9
RPMI 5 mM glucose + 10% dialyzed FBS, 15.4 µM	52	89.3	52.2
RPMI 5 mM glucose + 10% dialyzed FBS, 46.1 µM	4.03	10.5	6.92

C#Cc1cccc(Nc2ncnc3cc(OCCOC)c(OCCO)cc23)c1
AUC of viability dose-response curve
Settings	NOMO1 [1]	P12-Ichikawa [3]	SEM cells [2]
HPLM + 10% dialyzed FBS	372	451	431
RPMI 5 mM glucose + 10% FBS	455	453	400
RPMI 5 mM glucose + 10% dialyzed FBS	455	451	417

cell viability [%]
Settings	NOMO1 [4]	P12-Ichikawa [6]	SEM cells [5]
HPLM + 10% dialyzed FBS, 0.000781 µM	135	113	104
HPLM + 10% dialyzed FBS, 0.00234 µM	110	111	113
HPLM + 10% dialyzed FBS, 0.00702 µM	119	113	98.3
HPLM + 10% dialyzed FBS, 0.0211 µM	119	109	117
HPLM + 10% dialyzed FBS, 0.0632 µM	125	112	116
HPLM + 10% dialyzed FBS, 0.19 µM	116	113	123
HPLM + 10% dialyzed FBS, 0.569 µM	100	122	110
HPLM + 10% dialyzed FBS, 1.71 µM	68.7	104	105
HPLM + 10% dialyzed FBS, 5.12 µM	63.3	105	96.8
HPLM + 10% dialyzed FBS, 15.4 µM	69.9	91.6	69.1
HPLM + 10% dialyzed FBS, 46.1 µM	28.1	46.2	20
RPMI 5 mM glucose + 10% FBS, 0.000781 µM	118	118	–
RPMI 5 mM glucose + 10% FBS, 0.00234 µM	105	101	–
RPMI 5 mM glucose + 10% FBS, 0.00702 µM	110	107	–
RPMI 5 mM glucose + 10% FBS, 0.0211 µM	94.6	119	–
RPMI 5 mM glucose + 10% FBS, 0.0632 µM	118	110	–
RPMI 5 mM glucose + 10% FBS, 0.19 µM	104	119	–
RPMI 5 mM glucose + 10% FBS, 0.569 µM	112	111	–
RPMI 5 mM glucose + 10% FBS, 1.71 µM	94.2	109	–
RPMI 5 mM glucose + 10% FBS, 5.12 µM	103	98.5	–
RPMI 5 mM glucose + 10% FBS, 15.4 µM	93.2	95.7	–
RPMI 5 mM glucose + 10% FBS, 46.1 µM	33.9	49.4	–
RPMI 5 mM glucose + 10% dialyzed FBS, 0.000781 µM	118	115	114
RPMI 5 mM glucose + 10% dialyzed FBS, 0.00234 µM	123	110	107
RPMI 5 mM glucose + 10% dialyzed FBS, 0.00702 µM	98.2	118	118
RPMI 5 mM glucose + 10% dialyzed FBS, 0.0211 µM	112	110	114
RPMI 5 mM glucose + 10% dialyzed FBS, 0.0632 µM	104	113	116
RPMI 5 mM glucose + 10% dialyzed FBS, 0.19 µM	112	108	103
RPMI 5 mM glucose + 10% dialyzed FBS, 0.569 µM	118	106	105
RPMI 5 mM glucose + 10% dialyzed FBS, 1.71 µM	92.2	111	88.4
RPMI 5 mM glucose + 10% dialyzed FBS, 5.12 µM	104	104	94.9
RPMI 5 mM glucose + 10% dialyzed FBS, 15.4 µM	94.7	91.5	62.5
RPMI 5 mM glucose + 10% dialyzed FBS, 46.1 µM	41.7	43.3	14.5

COc1cc2c(Nc3ccc(NC(=O)c4ccccc4)cc3)ncnc2cc1OCCCN1CCOCC1
AUC of viability dose-response curve
Settings	NOMO1 [1]	P12-Ichikawa [3]	SEM cells [2]
HPLM + 10% dialyzed FBS	456	383	396
RPMI 5 mM glucose + 10% FBS	417	390	389
RPMI 5 mM glucose + 10% dialyzed FBS	425	386	385

cell viability [%]
Settings	NOMO1 [4]	P12-Ichikawa [6]	SEM cells [5]
HPLM + 10% dialyzed FBS, 0.000781 µM	122	116	105
HPLM + 10% dialyzed FBS, 0.00234 µM	124	123	119
HPLM + 10% dialyzed FBS, 0.00702 µM	128	122	124
HPLM + 10% dialyzed FBS, 0.0211 µM	126	125	140
HPLM + 10% dialyzed FBS, 0.0632 µM	137	131	130
HPLM + 10% dialyzed FBS, 0.19 µM	133	133	133
HPLM + 10% dialyzed FBS, 0.569 µM	144	135	123
HPLM + 10% dialyzed FBS, 1.71 µM	122	125	105
HPLM + 10% dialyzed FBS, 5.12 µM	103	45	56.8
HPLM + 10% dialyzed FBS, 15.4 µM	114	15	44.5
HPLM + 10% dialyzed FBS, 46.1 µM	115	15.6	40.6
RPMI 5 mM glucose + 10% FBS, 0.000781 µM	–	–	122
RPMI 5 mM glucose + 10% FBS, 0.00234 µM	–	–	127
RPMI 5 mM glucose + 10% FBS, 0.00702 µM	–	–	112
RPMI 5 mM glucose + 10% FBS, 0.0211 µM	–	–	140
RPMI 5 mM glucose + 10% FBS, 0.0632 µM	–	–	136
RPMI 5 mM glucose + 10% FBS, 0.19 µM	–	–	124
RPMI 5 mM glucose + 10% FBS, 0.569 µM	–	–	144
RPMI 5 mM glucose + 10% FBS, 1.71 µM	–	–	122
RPMI 5 mM glucose + 10% FBS, 5.12 µM	–	–	55
RPMI 5 mM glucose + 10% FBS, 15.4 µM	–	–	25.9
RPMI 5 mM glucose + 10% FBS, 46.1 µM	–	–	22.4
